These are literature values, as cited in patent US20080286343A1, “Solid form” (priority 2007, published 2008).

The conditions of this data set: g water per 1 g active; slightly soluble.

On to `Cn1c(=O)c2[nH]cnc2n(C)c1=O` [Theophylline], for which the “Solubility in water (1 g in ... g water)” value is 100-1000 g water.
